Data set [1] concerns the target T1, CHIKV nsP2 ATPase (Chikungunya virus, UniProt Q8JUX6). The data set is described as follows: High throughput nsP2 ATPase activity assay (Malachite Green).
Data set [2] deals with T1, CHIKV nsP2 ATPase. The data set is described as follows: Secondary CHIKV nsP2 ATPase assay (ADP-Glo). Particulars: for Hill slope: ADP-Glo dose response.
A further data set in a line: Kinetic solubility. Particulars: kinetic from dmso stock.
Where [3] appears, read: read-out: Malachite Green % INHIBITION (ORIGINAL).
Where [4] appears, read: read-out: Malachite Green % INHIBITION (RESCREEN).
Setting [5] is: read-out: ADP-Glo IC50, Avge n=2, 1 nM CHIKV nsP2fl, 30 μM ATP, 30 min pre-incubation.

Structures are written as SMILES. pIC50: −log10 of the molar value. Converted amounts (≈) assume the structure as drawn. Where two headings read alike, the source gives them in different places. Where only a bound is given, the exact number is not on record here.

T1 sequence (Q8JUX6 536-1333): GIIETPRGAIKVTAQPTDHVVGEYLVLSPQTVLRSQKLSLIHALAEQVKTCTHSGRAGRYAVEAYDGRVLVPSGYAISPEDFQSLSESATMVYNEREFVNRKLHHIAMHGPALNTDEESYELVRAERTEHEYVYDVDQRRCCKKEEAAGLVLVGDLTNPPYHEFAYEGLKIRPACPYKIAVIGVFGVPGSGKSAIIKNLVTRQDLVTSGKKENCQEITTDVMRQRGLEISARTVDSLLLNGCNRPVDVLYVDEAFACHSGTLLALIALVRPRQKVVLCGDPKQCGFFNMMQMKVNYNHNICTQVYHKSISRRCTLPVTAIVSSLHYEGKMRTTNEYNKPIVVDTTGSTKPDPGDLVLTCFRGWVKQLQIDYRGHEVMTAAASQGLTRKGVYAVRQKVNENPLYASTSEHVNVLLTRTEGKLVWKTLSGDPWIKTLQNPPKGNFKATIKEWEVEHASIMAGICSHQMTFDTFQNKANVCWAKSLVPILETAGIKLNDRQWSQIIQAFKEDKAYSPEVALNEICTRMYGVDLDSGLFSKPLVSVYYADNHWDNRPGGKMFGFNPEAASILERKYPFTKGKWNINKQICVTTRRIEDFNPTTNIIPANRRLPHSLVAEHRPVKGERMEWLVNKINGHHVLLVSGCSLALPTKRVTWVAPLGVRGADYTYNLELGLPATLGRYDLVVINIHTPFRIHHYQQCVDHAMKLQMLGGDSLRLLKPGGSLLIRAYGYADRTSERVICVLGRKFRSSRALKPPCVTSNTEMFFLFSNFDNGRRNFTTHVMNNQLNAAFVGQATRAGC

On to `O=C(CSc1nnc2c(=O)n(-c3cccc(F)c3)ccn12)c1c[nH]c2ccccc12` [RA-0001818], for which the inhibition at 25 µM on CHIKV nsP2 ATPase [1] (setting [3]) is 50%; on CHIKV nsP2 ATPase [1] (setting [4]), 145%.

On to `Brc1ccc(-c2csc(N3CCc4ccccc4C3)n2)cc1` [RA-0001809], for which the inhibition at 25 µM was found to be 58% at CHIKV nsP2 ATPase [1] (setting [3]) and 60% on CHIKV nsP2 ATPase [1] (setting [4]).

As to `CCCC(C(=O)O)N1C(=O)/C(=C/c2ccc(-c3ccc(Br)cc3)o2)SC1=S` (stereo not shown) [RA-0001801], the Hill slope on CHIKV nsP2 ATPase [2] (Avge n=2) came out at 1.4. The pIC50 at CHIKV nsP2 ATPase [2] (setting [5]) is 4.89. Moreover, the values for the inhibition at 25 µM at CHIKV nsP2 ATPase [1] (setting [3]) and on CHIKV nsP2 ATPase [1] (setting [4]) were 62% and 55%, respectively.

As to `CS(=O)(=O)NCC1CCOC2(CCN(C(=O)C3(c4ccccc4)CCCC3)CC2)C1` (stereo not shown) [RA-0001822], the pIC50 against CHIKV nsP2 ATPase [2] is 5.64. Also, the Hill slope at CHIKV nsP2 ATPase [2] (Avge n=2) stood at 0.85. In addition, the inhibition at 25 µM at CHIKV nsP2 ATPase [1] (setting [3]) came out at 84%; at CHIKV nsP2 ATPase [1] (setting [4]), 81%. Also, in “Kinetic solubility”, the kinetic solubility amounted to 236 µM (≈ 103 µg/mL).

On CHIKV nsP2 ATPase [2], `O=c1c(O)c(-c2ccc(O)c(O)c2)oc2cc(O)cc(O)c12` [RA-0001795] showed a pIC50 of 4.57. For the same compound, the Hill slope on CHIKV nsP2 ATPase [2] (Avge n=2) is recorded as 0.7. Besides, the inhibition at 25 µM at CHIKV nsP2 ATPase [1] (setting [3]) stood at 62%; at CHIKV nsP2 ATPase [1] (setting [4]) it was 55%.

As to `CC1SC2(C(=O)Nc3ccccc32)N(CCc2c[nH]c3ccccc23)C1=O` (stereo not shown) [RA-0001810], the pIC50 at CHIKV nsP2 ATPase [2] is 4.56. Further, the Hill slope at CHIKV nsP2 ATPase [2] (Avge n=2) came out at 2.65. The inhibition at 25 µM on CHIKV nsP2 ATPase [1] (setting [3]) amounted to 58%; at CHIKV nsP2 ATPase [1] (setting [4]) it was 76%.

As to `N#Cc1c(SCc2cccc(F)c2)nsc1SCc1cccc(F)c1` [RA-0001805], the values for the inhibition at 25 µM at CHIKV nsP2 ATPase [1] (setting [3]) and at CHIKV nsP2 ATPase [1] (setting [4]) were 33% and 51%, respectively.

Take `CSc1ccc(Cn2cccc2C2=NC(CSCc3ccc(F)cc3)CO2)cc1` (stereo not shown) [RA-0001812]: the inhibition at 25 µM amounted to 48% on CHIKV nsP2 ATPase [1] (setting [3]) and 53% on CHIKV nsP2 ATPase [1] (setting [4]).

`Cc1ncc2c(n1)COC21CN(C(=O)C2(c3ccccc3)CCCC2)C1` [RA-0001824] showed a pIC50 on CHIKV nsP2 ATPase [2] of 5.25. This compound showed a Hill slope at CHIKV nsP2 ATPase [2] (Avge n=2) of 0.43. The inhibition at 25 µM at CHIKV nsP2 ATPase [1] (setting [3]) amounted to 79%; on CHIKV nsP2 ATPase [1] (setting [4]), 69%.

Take `Fc1cccc(Cl)c1Cn1cccc1C1=NC(CSCc2ccccc2)CO1` (stereo not shown) [RA-0001811]: the inhibition at 25 µM came to 46% on CHIKV nsP2 ATPase [1] (setting [3]) and 56% on CHIKV nsP2 ATPase [1] (setting [4]).

On to `Cc1cccc(CSc2nsc(SCc3cccc(C)c3)c2C#N)c1` [RA-0001803], for which the inhibition at 25 µM worked out at 57% at CHIKV nsP2 ATPase [1] (setting [3]) and 61% at CHIKV nsP2 ATPase [1] (setting [4]).

On to `O=C(CN1C(=O)C2C3CCC(C3)C2C1=O)OCC(=O)c1ccc(Cl)cc1` (stereo not shown) [RA-0001796], for which the pIC50 at CHIKV nsP2 ATPase [2] was 4.70. In addition, the Hill slope at CHIKV nsP2 ATPase [2] (Avge n=2) is 0.6. Besides, the figures for the inhibition at 25 µM on CHIKV nsP2 ATPase [1] (setting [3]) and at CHIKV nsP2 ATPase [1] (setting [4]) were 60% and 55%, respectively.

For `Clc1cccc(CSC2=NC3(CCCCC3)Nc3ccccc32)c1` [RA-0001814], the inhibition at 25 µM at CHIKV nsP2 ATPase [1] (setting [3]) was 73%; at CHIKV nsP2 ATPase [1] (setting [4]) it was 54%.

`N#Cc1c(SCc2ccccc2)cc(SCc2ccccc2)cc1SCc1ccccc1` [RA-0001807] showed a Hill slope at CHIKV nsP2 ATPase [2] (Avge n=2) of 2. Besides, the inhibition at 25 µM on CHIKV nsP2 ATPase [1] (setting [3]) is 45%; on CHIKV nsP2 ATPase [1] (setting [4]) it was 60%.

Regarding `Fc1cccc(CSC2=NC3(CCCCC3)Nc3ccccc32)c1` [RA-0001815], the inhibition at 25 µM at CHIKV nsP2 ATPase [1] (setting [3]) came to 81%; at CHIKV nsP2 ATPase [1] (setting [4]), 77%.

On to `O=C(C1CCCN(c2ccc(Sc3ccc(Br)cc3)nn2)C1)N1CCSCC1` (stereo not shown) [RA-0001816], for which, at CHIKV nsP2 ATPase [2] (Avge n=2), the Hill slope worked out at 1.2. On CHIKV nsP2 ATPase [2] (setting [5]), the pIC50 is 5.14. The inhibition at 25 µM is 67% on CHIKV nsP2 ATPase [1] (setting [3]) and 71% on CHIKV nsP2 ATPase [1] (setting [4]).

In the case of `COc1cc(Cl)c(NS(=O)(=O)c2c(C)sc(C)c2-c2[nH]nc(C)c2C)c(OC)c1` [RA-0001819], the pIC50 on CHIKV nsP2 ATPase [2] was 6.22. At CHIKV nsP2 ATPase [2] (Avge n=2), this compound had a Hill slope of 0.7. Besides, the inhibition at 25 µM at CHIKV nsP2 ATPase [1] (setting [3]) stood at 66%; on CHIKV nsP2 ATPase [1] (setting [4]), 72%. In “Kinetic solubility”, this compound had a solubility (kinetic) of 12.5 µM (≈ 5.7 µg/mL).

`CN(Cc1ccco1)c1nc(-c2ccc(Cl)cc2)nc2ccccc12` [RA-0001817]: the inhibition at 25 µM at CHIKV nsP2 ATPase [1] (setting [3]) was determined as 49%; at CHIKV nsP2 ATPase [1] (setting [4]) it was 56%.

As to `Cc1ccnc(OC2CCOC3(CCN(C(=O)C4(c5ccccc5)CCCC4)CC3)C2)c1` (stereo not shown) [RA-0001821], the Hill slope at CHIKV nsP2 ATPase [2] (Avge n=2) stood at 1.25. Also, the pIC50 at CHIKV nsP2 ATPase [2] (setting [5]) was 5.40. The inhibition at 25 µM at CHIKV nsP2 ATPase [1] (setting [3]) turned out to be 70%; on CHIKV nsP2 ATPase [1] (setting [4]), 65%. In the data set “Kinetic solubility”, this compound had a kinetic solubility of 14.2 µM (≈ 6.17 µg/mL).

`COc1ccc(OC)c(N2C(=O)/C(=C/c3ccco3)C(=O)NC2=S)c1` [RA-0001798] came in with a Hill slope at CHIKV nsP2 ATPase [2] (Avge n=2) of 1.4. For the same compound, the pIC50 on CHIKV nsP2 ATPase [2] (setting [5]) was 5.42; on CHIKV nsP2 ATPase [2] (read-out: ADP-Glo IC50, Avge n=2, 1 nM CHIKV nsP2fl, 30 μM ATP, 30 min pre-incubation, listed as 1798) it was over 5.00. In addition, the inhibition at 25 µM at CHIKV nsP2 ATPase [1] (setting [3]) was found to be 79%; at CHIKV nsP2 ATPase [1] (setting [4]) it was 74%.

Consider `O=C1c2oc3ccccc3c(=O)c2C(c2ccc(O)cc2)N1Cc1ccccc1Cl` (stereo not shown) [RA-0001802], for which the negative-log IC50 (pIC50) at CHIKV nsP2 ATPase [2] is 4.83. Moreover, the Hill slope at CHIKV nsP2 ATPase [2] (Avge n=2) came to 1. Also, the inhibition at 25 µM amounted to 37% at CHIKV nsP2 ATPase [1] (setting [3]) and 51% at CHIKV nsP2 ATPase [1] (setting [4]).

Turning to `Cc1ccc(N2C(=O)/C(=C/C=C/c3ccco3)C(=O)NC2=S)cc1` [RA-0001799], the Hill slope at CHIKV nsP2 ATPase [2] (Avge n=2) is 2.8. The figures for the inhibition at 25 µM on CHIKV nsP2 ATPase [1] (setting [3]) and at CHIKV nsP2 ATPase [1] (setting [4]) were 85% and 64%, respectively.

In the case of `O=c1cc(-c2ccc(O)c(O)c2)oc2cc(O)cc(O)c12` [RA-0001820], the inhibition at 25 µM is 60% at CHIKV nsP2 ATPase [1] (setting [3]) and 62% on CHIKV nsP2 ATPase [1] (setting [4]).

With `Clc1ccccc1CSC1=NC2(CCCCC2)Nc2ccccc21` [RA-0001813], the inhibition at 25 µM on CHIKV nsP2 ATPase [1] (setting [3]) is 66%; at CHIKV nsP2 ATPase [1] (setting [4]), 81%.

Take `Cc1ccc(CSc2nsc(SCc3ccc(C)cc3)c2C#N)cc1` [RA-0001806]: the inhibition at 25 µM on CHIKV nsP2 ATPase [1] (setting [3]) worked out at 45%; at CHIKV nsP2 ATPase [1] (setting [4]) it was 53%.

`Cc1c(Cl)ccc2c1NC(C(=O)O)C1CC=CC21` (stereo not shown) [RA-0001808]: the results for the inhibition at 25 µM on CHIKV nsP2 ATPase [1] (setting [3]) and at CHIKV nsP2 ATPase [1] (setting [4]) were 63% and 69%, respectively.

For `N#Cc1c(SCc2ccccc2Cl)nsc1SCc1ccccc1Cl` [RA-0001804], the Hill slope at CHIKV nsP2 ATPase [2] (Avge n=2) came out at 2.35. Moreover, the inhibition at 25 µM worked out at 53% at CHIKV nsP2 ATPase [1] (setting [3]) and 64% at CHIKV nsP2 ATPase [1] (setting [4]).

Consider `Cc1nc(CC2CCOC3(CCN(C(=O)C4(c5ccccc5)CCCC4)CC3)C2)no1` (stereo not shown) [RA-0001823], for which, at CHIKV nsP2 ATPase [2], the pIC50 was 5.82. At CHIKV nsP2 ATPase [2] (Avge n=2), the Hill slope stood at 0.87. Also, the inhibition at 25 µM was 78% at CHIKV nsP2 ATPase [1] (setting [3]) and 82% at CHIKV nsP2 ATPase [1] (setting [4]). In addition, the kinetic solubility in “Kinetic solubility” came out at 202 µM (≈ 85.6 µg/mL).
